Results published in article PMC8206213, “An L-2-hydroxyglutarate biosensor based on specific transcriptional regulator LhgR” (Nature Communications, 2021).
Where “and” joins values, the source holds several entries; their conditions need not be identical. Equal entries are not always repeated.

What was measured:
LhgO = assay: Enzymatic assay of LhgO in crude extracts of P. putida KT2440 derivatives grown on different carbon sources (induction of lhgO under LhgR control); type: cell-based, Pseudomonas putida
Method: The cells were harvested at mid-log phase, washed twice and resuspended in phosphate-buffered saline (PBS), then lysed by sonication on ice after the addition of 1 mM phenylmethylsulfonyl fluoride (PMSF). […] Protein concentrations of the supernatants were determined using the Bradford protein assay kit (Sangon, China). […] The 800 μL reaction solution contained 0.1 mM […], 0.05 mM DCPIP, 0.2 mM phenazine methosulfate (PMS) in PBS and 40 μL crude extracts.

LHGFR0N7C = assay: Specificity of purified LHGFR0N7C, emission ratio with 240 μM compounds; type: binding, Pseudomonas putida W619; conditions: 240 μM compound
LHGFR0N3C = assay: Influence of other compounds on the response of purified LHGFR0N3C to L-2-HG; type: binding, Pseudomonas putida W619
Method in brief: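 Purified L-2-HG biosensors were mixed 3:1 with test compounds in 50 mM Tris-HCl pH 7.4, excited at 430 nm, and the 528 nm (Venus)/485 nm (mTFP) emission was read. Responses were fitted with a Hill model giving apparent Kd and Hill slope.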

[1] = system: LHGFR3N7C expressed in E. coli BL21(DE3); assay: Control biosensor LHGFR3N7C expressed in E. coli, response to added compounds; type: cell-based; conditions: Supplementary Fig. 14a
Method: To characterize the sensitivity and specificity of LHGFR expressed in E. coli BL21(DE3), 90 μL cell suspensions following 8 h carbon starvation were mixed with 10 μL increasing concentrations of L-2-HG or other compounds, and then added into a black 96-well plate (total 100 μL/per well), the fluorescence intensities were determined using an EnSight microplate reader (PerkinElmer, USA) and the following instrument settings: excitation at 430 nm, emission at 485 nm (mTFP) and 528 nm (Venus), time intervals of 5 min, the temperature at 37 °C, and shake at 180 rpm.

Q: O=C(O)CC[C@H](O)C(=O)O [L-2-HG, L-2-Hydroxyglutarate] was tested. Which LhgO activity (LhgO; crude extract of DcsiRDcsiDDlhgO-pME6032-F2-lhgR-F1-lhgO grown with the compound as sole carbon source) did it give?
A: 0.02147 and 0.02016 and 0.02474

Q: What about the LhgO activity (LhgO; crude extract of DcsiRDcsiDDlhgO-pME6032 grown with the compound as sole carbon source) of the same molecule?
A: 0.00119 and 0.00104 and 0.00167

Q: And the LhgO activity (LhgO; crude extract of DcsiRDlhgO-pME6032-F2-lhgR-F1-lhgO grown with the compound as sole carbon source)?
A: 0.02241 and 0.0245 and 0.02829

Q: What about the “Induction of lhgO expression / effector molecule of LhgR” value (LhgO; gene segment F2-lhgR-F1-lhgO in P. putida KT2440 derivatives) of the same molecule?
A: can induce the expression of lhgO

Q: And the Emission ratio (LHGFR0N7C)?
A: 2.5923 and 2.613 and 2.627

Q: And the “Emission ratio of 528/485” value (LHGFR0N3C; L-2-HG concentration 0.01, in the absence of 2-KG, Suppl. Fig. 9g)?
A: 1.4026 and 1.407 and 1.399

Q: And the “Emission ratio of 528/485” value (LHGFR0N3C; L-2-HG concentration 0.01, in the absence of D-2-HG, Suppl. Fig. 9e)?
A: 1.361 and 1.439 and 1.415

Q: What about the “Emission ratio of 528/485” value (LHGFR0N3C; L-2-HG concentration 0.01, in the presence of 2-KG, Suppl. Fig. 9g) of the same molecule?
A: 1.363

Q: What about the “Emission ratio of 528/485” value (LHGFR0N3C; L-2-HG concentration 0.01, in the presence of D-2-HG, Suppl. Fig. 9e) of the same molecule?
A: 1.406 and 1.467 and 1.446

Q: What about the “Emission ratio of 528/485” value (LHGFR0N3C; L-2-HG concentration 0.1, in the absence of D-2-HG, Suppl. Fig. 9e) of the same molecule?
A: 1.367 and 1.431 and 1.424

Q: And the “Emission ratio of 528/485” value (LHGFR0N3C; L-2-HG concentration 0.1, in the presence of D-2-HG, Suppl. Fig. 9e)?
A: 1.407 and 1.464 and 1.416

Q: And the “Emission ratio of 528/485” value (LHGFR0N3C; L-2-HG concentration 0.2, in the absence of D-2-HG, Suppl. Fig. 9e)?
A: 1.3539 and 1.456 and 1.407

Q: What about the “Emission ratio of 528/485” value (LHGFR0N3C; L-2-HG concentration 0.2, in the presence of D-2-HG, Suppl. Fig. 9e) of the same molecule?
A: 1.417 and 1.4607 and 1.422

Q: What about the “Emission ratio of 528/485” value (LHGFR0N3C; L-2-HG concentration 1, in the absence of D-2-HG, Suppl. Fig. 9e) of the same molecule?
A: 1.3919 and 1.421 and 1.443

Q: What about the “Emission ratio of 528/485” value (LHGFR0N3C; L-2-HG concentration 1, in the presence of D-2-HG, Suppl. Fig. 9e) of the same molecule?
A: 1.445 and 1.477 and 1.4328

Q: And the “Emission ratio of 528/485” value (LHGFR0N3C; L-2-HG concentration 2, in the absence of D-2-HG, Suppl. Fig. 9e)?
A: 1.397 and 1.479 and 1.464

Q: And the “Emission ratio of 528/485” value (LHGFR0N3C; L-2-HG concentration 2, in the presence of D-2-HG, Suppl. Fig. 9e)?
A: 1.472 and 1.492 and 1.494

Q: What about the “Emission ratio of 528/485” value (LHGFR0N3C; L-2-HG concentration 10, in the absence of D-2-HG, Suppl. Fig. 9e) of the same molecule?
A: 1.597 and 1.623 and 1.644

Q: And the “Emission ratio of 528/485” value (LHGFR0N3C; L-2-HG concentration 10, in the presence of D-2-HG, Suppl. Fig. 9e)?
A: 1.611 and 1.627 and 1.593

Q: What about the “Emission ratio of 528/485” value (LHGFR0N3C; L-2-HG concentration 20, in the absence of 2-KG, Suppl. Fig. 9g) of the same molecule?
A: 1.741 and 1.744 and 1.757

Q: What about the “Emission ratio of 528/485” value (LHGFR0N3C; L-2-HG concentration 20, in the absence of D-2-HG, Suppl. Fig. 9e) of the same molecule?
A: 1.77 and 1.748 and 1.778

Q: What about the “Emission ratio of 528/485” value (LHGFR0N3C; L-2-HG concentration 20, in the presence of 2-KG, Suppl. Fig. 9g) of the same molecule?
A: 1.682 and 1.691 and 1.6943

Q: What about the “Emission ratio of 528/485” value (LHGFR0N3C; L-2-HG concentration 20, in the presence of D-2-HG, Suppl. Fig. 9e) of the same molecule?
A: 1.748 and 1.775 and 1.796

Q: What about the “Emission ratio of 528/485” value (LHGFR0N3C; L-2-HG concentration 100, in the absence of 2-KG, Suppl. Fig. 9g) of the same molecule?
A: 1.995 and 2.046 and 2.033

Q: What about the “Emission ratio of 528/485” value (LHGFR0N3C; L-2-HG concentration 100, in the absence of D-2-HG, Suppl. Fig. 9e) of the same molecule?
A: 1.9389 and 1.983 and 2.002

Q: What about the “Emission ratio of 528/485” value (LHGFR0N3C; L-2-HG concentration 100, in the presence of 2-KG, Suppl. Fig. 9g) of the same molecule?
A: 1.979 and 1.983 and 2.015

Q: And the “Emission ratio of 528/485” value (LHGFR0N3C; L-2-HG concentration 100, in the presence of D-2-HG, Suppl. Fig. 9e)?
A: 2.01 and 1.942 and 2.017

Q: What about the “Emission ratio of 528/485” value (LHGFR0N3C; L-2-HG concentration 200, in the absence of 2-KG, Suppl. Fig. 9g) of the same molecule?
A: 2.097 and 2.071 and 2.086

Q: And the “Emission ratio of 528/485” value (LHGFR0N3C; L-2-HG concentration 200, in the absence of D-2-HG, Suppl. Fig. 9e)?
A: 2.026 and 2.0171 and 2.117

Q: What about the “Emission ratio of 528/485” value (LHGFR0N3C; L-2-HG concentration 200, in the presence of 2-KG, Suppl. Fig. 9g) of the same molecule?
A: 2.058 and 2.06 and 2.089

Q: What about the “Emission ratio of 528/485” value (LHGFR0N3C; L-2-HG concentration 200, in the presence of D-2-HG, Suppl. Fig. 9e) of the same molecule?
A: 2.039 and 1.978 and 2.053

Q: What about the “Emission ratio of 528/485” value (LHGFR0N3C; L-2-HG concentration 1000, in the absence of 2-KG, Suppl. Fig. 9g) of the same molecule?
A: 2.1941 and 2.174 and 2.177

Q: And the “Emission ratio of 528/485” value (LHGFR0N3C; L-2-HG concentration 1000, in the absence of D-2-HG, Suppl. Fig. 9e)?
A: 2.163 and 2.184 and 2.199

Q: And the “Emission ratio of 528/485” value (LHGFR0N3C; L-2-HG concentration 1000, in the presence of 2-KG, Suppl. Fig. 9g)?
A: 2.1301 and 2.167 and 2.163

Q: What about the “Emission ratio of 528/485” value (LHGFR0N3C; L-2-HG concentration 1000, in the presence of D-2-HG, Suppl. Fig. 9e) of the same molecule?
A: 2.202 and 2.174 and 2.19

Q: And the “Emission ratio of 528/485” value (LHGFR0N3C; L-2-HG concentration 2000, in the absence of 2-KG, Suppl. Fig. 9g)?
A: 2.149 and 2.166 and 2.182

Q: And the “Emission ratio of 528/485” value (LHGFR0N3C; L-2-HG concentration 2000, in the absence of D-2-HG, Suppl. Fig. 9e)?
A: 2.176 and 2.24 and 2.201

Q: What about the “Emission ratio of 528/485” value (LHGFR0N3C; L-2-HG concentration 2000, in the presence of 2-KG, Suppl. Fig. 9g) of the same molecule?
A: 2.154 and 2.1518 and 2.167

Q: What about the “Emission ratio of 528/485” value (LHGFR0N3C; L-2-HG concentration 2000, in the presence of D-2-HG, Suppl. Fig. 9e) of the same molecule?
A: 2.195 and 2.175 and 2.2011

Q: What about the Emission ratio (LHGFR0N3C; Suppl. Fig. 9a, L-2-HG alone or with the compound, three replicates) of the same molecule?
A: 2.053 and 2.0953 and 2.06

Q: What about the “normalized emission ratio of control biosensor expressed in E. coli” value (“normalized emission ratio” for short) ([1]; time 0 min) of the same molecule?
A: 1.025 and 0.9958 and 0.9991 and 1.005

Q: And the “normalized emission ratio” value ([1]; time 5 min)?
A: 1.029 and 0.9977 and 0.9908 and 1.001

Q: What about the “normalized emission ratio” value ([1]; time 10 min) of the same molecule?
A: 1.016 and 0.9993 and 0.9928 and 0.996

Q: And the “normalized emission ratio” value ([1]; time 15 min)?
A: 1.012 and 0.9858 and 0.9895 and 0.9948

Q: And the “normalized emission ratio” value ([1]; time 20 min)?
A: 1.006 and 0.9892 and 0.9883 and 1.004

Q: And the “normalized emission ratio” value ([1]; time 25 min)?
A: 1.005 and 0.9958 and 0.9871 and 1.006

Q: What about the “normalized emission ratio” value ([1]; time 30 min) of the same molecule?
A: 1.009 and 0.9836 and 0.9873 and 0.9978

Q: And the “normalized emission ratio” value ([1]; time 35 min)?
A: 1.002 (2×) and 0.988 and 0.9805

Q: What about the “normalized emission ratio” value ([1]; time 40 min) of the same molecule?
A: 1.005 and 0.9884 and 0.9838 and 1.008

Q: What about the “normalized emission ratio” value ([1]; time 45 min) of the same molecule?
A: 1.011 and 0.9924 and 0.993 and 1.004

Q: And the “normalized emission ratio” value ([1]; time 50 min)?
A: 0.997 and 0.991 and 0.9858 and 1.009

Q: What about the “normalized emission ratio” value ([1]; time 55 min) of the same molecule?
A: 1.0056 and 0.9921 and 0.9909 and 1.012

Q: What about the “normalized emission ratio” value ([1]; time 60 min) of the same molecule?
A: 1.003 and 0.9967 and 0.9937 and 1.007

Q: What about the “normalized emission ratio” value ([1]; time 65 min) of the same molecule?
A: 0.9962 (2×) and 0.991 and 1.017

Q: What about the “normalized emission ratio” value ([1]; time 70 min) of the same molecule?
A: 1.013 and 1.001 and 0.9947 and 1.016

Q: What about the “normalized emission ratio” value ([1]; time 75 min) of the same molecule?
A: 1.004 and 0.9948 and 0.9987 and 1.025

Q: And the “normalized emission ratio” value ([1]; time 80 min)?
A: 1.011 and 1.0052 and 1.01 and 1.025

Q: What about the “normalized emission ratio” value ([1]; time 85 min) of the same molecule?
A: 1.015 and 0.9941 and 1.005 and 1.023

Q: And the “normalized emission ratio” value ([1]; time 90 min)?
A: 1.028 and 1.011 and 1.01 and 1.022
